From ChEMBL document CHEMBL4007390, “Design, synthesis and biological evaluation of indolin-2-one-based derivatives as potent, selective and efficacious inhibitors of FMS-like tyrosine kinase3 (FLT3)” (Eur J Med Chem, 2017)
Activity calls are given as the source filed them. The rule behind the calls is not given here.

Test system: MV4-11
Assay: Antiproliferative activity against human MV4-11 cells harboring FLT3 ITD mutant after 72 hrs by MTS assay
Type: functional, cell-based
Settings: MV4-11, 72 h

Row | Structure (SMILES) | IC50
1 | Cc1[nH]c(/C=C2\C(=O)Nc3ccc(F)cc32)c(C)c1NC(=O)CNC(C)(C)C | 158 nM
2 | Cc1[nH]c(/C=C2\C(=O)Nc3ccc(F)cc32)c(C)c1NC(=O)CN1CCNCC1 | 17.1 nM
3 | Cc1[nH]c(/C=C2\C(=O)Nc3ccc(F)cc32)c(C)c1NC(=O)CN1CCOCC1 | 66.1 nM
4 | Cc1[nH]c(/C=C2\C(=O)Nc3ccc(F)cc32)c(C)c1NC(=O)CCN1CCCCC1 | 33.7 nM
5 | CCN(CC)CCC(=O)Nc1c(C)[nH]c(/C=C2\C(=O)Nc3ccc(F)cc32)c1C | 36.5 nM
6 | Cc1[nH]c(/C=C2\C(=O)Nc3ccc(F)cc32)c(C)c1NC(=O)CCN1CCCC1 | 20 nM
7 | Cc1[nH]c(/C=C2\C(=O)Nc3ccc(F)cc32)c(C)c1NC(=O)CCNC(C)(C)C | 30.3 nM
8 | CCCN(CCC)CCC(=O)Nc1c(C)[nH]c(/C=C2\C(=O)Nc3ccc(F)cc32)c1C | 142 nM
9 | Cc1[nH]c(/C=C2\C(=O)Nc3ccc(F)cc32)c(C)c1NC(=O)CN1CCN(C)CC1 | 38.5 nM
10 | CCNCCC(=O)Nc1c(C)[nH]c(/C=C2\C(=O)Nc3ccc(F)cc32)c1C | 25.7 nM
11 | CCCNCC(=O)Nc1c(C)[nH]c(/C=C2\C(=O)Nc3ccc(F)cc32)c1C | 67.8 nM
12 | CCCNCCC(=O)Nc1c(C)[nH]c(/C=C2\C(=O)Nc3ccc(F)cc32)c1C | 39.4 nM
13 | Cc1[nH]c(/C=C2\C(=O)Nc3ccc(F)cc32)c(C)c1NC(=O)C1CCNCC1 | 14.7 nM
14 | Cc1[nH]c(/C=C2\C(=O)Nc3ccc(F)cc32)c(C)c1NC(=O)CCN1CCOCC1 | 60.7 nM
15 | CCCCNCC(=O)Nc1c(C)[nH]c(/C=C2\C(=O)Nc3ccc(F)cc32)c1C | > 200 nM
16 | Cc1[nH]c(/C=C2\C(=O)Nc3ccc(F)cc32)c(C)c1NC(=O)CCNC1CCCCC1 | 119 nM
17 | Cc1[nH]c(/C=C2\C(=O)Nc3ccc(F)cc32)c(C)c1NC(=O)CCN1CCN(C)CC1 | 45.3 nM

Row | Structure (SMILES) | IC50
18 | Cc1[nH]c(/C=C2\C(=O)Nc3ccc(F)cc32)c(C)c1NC(=O)C1CCCCN1 (stereo not drawn) | 35.6 nM
19 | CCCN(CCC)CC(=O)Nc1c(C)[nH]c(/C=C2\C(=O)Nc3ccc(F)cc32)c1C | > 200 nM
20 | Cc1[nH]c(/C=C2\C(=O)Nc3ccc(F)cc32)c(C)c1NC(=O)CCNC1CCCC1 | 55 nM
21 | CCN(CC)CCNC(=O)c1c(C)[nH]c(/C=C2\C(=O)Nc3ccc(F)cc32)c1C [SUNITINIB] | 38.5 nM
22 | Cc1[nH]c(/C=C2\C(=O)Nc3ccc(F)cc32)c(C)c1NC(=O)CCN1CCNCC1 | 39.2 nM
23 | CCCCNCCC(=O)Nc1c(C)[nH]c(/C=C2\C(=O)Nc3ccc(F)cc32)c1C | 73.4 nM
24 | Cc1[nH]c(/C=C2\C(=O)Nc3ccc(F)cc32)c(C)c1NC(=O)CN1CCCCC1 | > 200 nM
25 | Cc1[nH]c(/C=C2\C(=O)Nc3ccc(F)cc32)c(C)c1NC(=O)CN1CCCC1 | 74.4 nM
26 | Cc1[nH]c(/C=C2\C(=O)Nc3ccc(F)cc32)c(C)c1NC(=O)C1CCCNC1 (stereo not drawn) | 24.1 nM
27 | Cc1[nH]c(/C=C2\C(=O)Nc3ccc(F)cc32)c(C)c1NC(=O)CNC1CCCCC1 | > 200 nM
28 | CCNCC(=O)Nc1c(C)[nH]c(/C=C2\C(=O)Nc3ccc(F)cc32)c1C | 43.8 nM
29 | Cc1[nH]c(/C=C2\C(=O)Nc3ccc(F)cc32)c(C)c1NC(=O)CNC1CCCC1 | 89.9 nM
30 | CCN(CC)CC(=O)Nc1c(C)[nH]c(/C=C2\C(=O)Nc3ccc(F)cc32)c1C | > 200 nM
31 | Cc1[nH]c(/C=C2\C(=O)Nc3ccc(F)cc32)c(C)c1NC(=O)CN(C)C | 47.5 nM
32 | Cc1[nH]c(/C=C2\C(=O)Nc3ccc(F)cc32)c(C)c1NC(=O)[C@@H]1CCCN1 | 41.4 nM
33 | Cc1[nH]c(/C=C2\C(=O)Nc3ccc(F)cc32)c(C)c1NC(=O)CCN(C)C | 27.1 nM

Test system: MV4-11
Assay: Antitumor activity against human MV4-11 cells xenografted in Harlan nude mouse assessed as tumor growth inhibition administered orally measured after 1 week
Type: functional, cell-based
Settings: not given

Row | Structure (SMILES) | TGI
34 | Cc1[nH]c(/C=C2\C(=O)Nc3ccc(F)cc32)c(C)c1NC(=O)C1CCNCC1 | inactive

Test system: MV4-11
Assay: Antitumor activity against human MV4-11 cells xenografted in Harlan nude mouse assessed as tumor growth inhibition administered ig qd for 20 days
Type: functional
Settings: MV4-11, po, 480 h, read-out: MED

Row | Structure (SMILES) | minimal effective dose
35 | CCN(CC)CCNC(=O)c1c(C)[nH]c(/C=C2\C(=O)Nc3ccc(F)cc32)c1C [SUNITINIB] | 10 mg/kg/day

Test system: not listed separately
Assay: Toxicity in Harlan nude mouse xenografted with human MV4-11 cells administered ig qd for 20 days
Settings: in vivo, po

Row | Structure (SMILES) | MTD at 480 h
36 | CCN(CC)CCNC(=O)c1c(C)[nH]c(/C=C2\C(=O)Nc3ccc(F)cc32)c1C [SUNITINIB] | 80 mg/kg/day

Test system: MV4-11
Assay: Antitumor activity against human MV4-11 cells xenografted in Harlan nude mouse assessed as tumor growth inhibition at 10 mg/kg, ig qd for 20 days relative to control
Type: functional
Settings: MV4-11, po, 480 h, read-out: TGI

Row | Structure (SMILES) | inhibition in vivo at 10 mg/kg
37 | CCN(CC)CCNC(=O)c1c(C)[nH]c(/C=C2\C(=O)Nc3ccc(F)cc32)c1C [SUNITINIB] | 81%

Test system: not listed separately
Assay: Inhibition of human FLT3 ITD mutant
Settings: not given

Row | Structure (SMILES) | IC50
38 | CCN(CC)CCNC(=O)c1c(C)[nH]c(/C=C2\C(=O)Nc3ccc(F)cc32)c1C [SUNITINIB] | 1.4 nM
